Results: PubChem BioAssay AID1963852 (Molecular Pharmacology Branch, DTP, NCI, 2024)
“And” between values parts separate entries of the source, which are not always exact repeats. Equal entries are not always repeated.

Tested on: 282377-053-R-J1-PDC complex spheroid viability
Assay: Anticancer human tumor 282377-053-R-J1-PDC patient-derived colon adenocarcinoma cell line growth inhibition [POLQ]
Conditions: for viability, T/C: stronger effect = lower value
Method: Multicellular complex tumor spheroid response to Polymerase (POL) inhibitors (novobiocin, ART-558, RP6685) in combination with a variety of drugs and investigational agents in selected tumor cell lines
The POL inhibitors (novobiocin, ART-558, and RP6685) were evaluated both individually and in combination with standard of care and investigational anticancer small molecules within a complex spheroid model of solid tumors. . Complex spheroids include a stromal component modeled by human endothelial cells (HUVEC) and fibroblasts modeled by human mesenchymal stem cells (MSCs). The concentration ranges selected for each drug and investigational agent were based upon clinically achievable concentrations if the clinical Cmax of the agent was known.
Compounds. The drugs and investigational agents: novobiocin (NSC847541), ART-558 (NSC835418), RP-6685 (NSC848927), peposertib (NSC802822), ceralasertib (NSC780249), elimusertib (NSC800525), camonsertib (NSC841442), AZD-1390 (NSC803789), olaparib (NSC753686), talazoparib (NSC767125), rucaparib (NSC756644), sotorasib (NSC818433), MRTX-1133 (NSC836407), SN-38 (NSC673596), topotecan (NSC609699), epotoside (NSC141540), doxorubicin (NSC123127), gemcitabine (NSC613327), 5-fluorouracil (NSC19893), paclitaxel (NSC125973), vemurafenib (NSC761431), MSA-2 (NSC828583), SN-011 (NSC837082), adavosertib (NSC754352), prexasertib (NSC758257), carboplatin (NSC241240) and oxaliplatin (NSC266046), were obtained from the National Cancer Institute (NCI) Developmental Therapeutics Program Chemical Repository (21). The FDA-approved anticancer drug set is available from the Developmental Therapeutics Program at https://dtp.cancer.gov/organization/dscb/obtaining/. […] The stock solutions were prepared in dimethyl sulfoxide (DMSO, Sigma-Aldrich, St. Louis, MO, cat. D2650), except for the platinum compounds which were prepared in saline (Quality Biological, Gaithersburg, MD, cat. 114-055-101), at 800-fold the tested concentration and stored at -70 degrees C prior to their use. All drugs and investigational agents were tested over a range starting from a high concentration at or near the clinical Cmax and decreasing in half-log increments. If the clinical Cmax for an agent had not been determined, the highest concentration tested was 10 microM, except for SN-38, which was tested at a high concentration of 1 microM.
Cell Culture. All cells were maintained in an incubator at 37 degrees C and 5% CO2 with 95% humidity. The PDC lines were cultured according to standard operating procedures established by the NCI PDMR (https://pdmr.cancer.gov). Table 3 of the manuscript, lists the cell lines along with the number of the three cell types plated to form the mct-spheroids and media for tumor cell growth. After thawing, all PDC lines, except 997537-175-T-J1-PDC and 415267-285-R-J2-PDC, were cultured in Matrigel-coated flasks prepared with a working solution of 1X Ham's F-12 nutrient mix, without supplementation (Thermo Fisher Scientific, cat. 11765054), 100 U/mL penicillin-streptomycin (Thermo Fisher Scientific, cat. 15140122), and 2.5% Matrigel (Corning Inc., Corning, NY, cat. 354248) for the first three passages. The two PDC lines 997537-175-T-J1-PDC and 415267-285-R-J2-PDC were cultured on uncoated flasks. The 857933-349-R-J2-PDC line was cultured in 6C/Colon 1B media containing advanced DMEM/F-12 (Thermo Fisher Scientific, cat. 12634028), 10 mM HEPES (Thermo Fisher Scientific, cat. 15630080), 1X GlutaMAX supplement (Thermo Fisher Scientific, cat. 35050061), 0.1 mg/mL primocin (InvivoGen, San Diego, CA, cat. ant-pm-2), 10% defined fetal bovine serum, heat inactivated (HyClone Laboratories Inc., Logan, UT, cat. SH30070.03HI), 50% L-WRN conditioned media (ATCC, cat. CRL-3276), 1.25 mM N-Acetyl-L-cysteine (Sigma-Aldrich, cat. A9165), 10 mM nicotinamide (Sigma-Aldrich, cat. N0636), 1X B-27 supplement (Thermo Fisher Scientific, cat. 17504044), 1X N-2 supplement (Thermo Fisher Scientific, cat. […]
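Note: spheroids exposed to compounds for seven days.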
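Throughout, for viability, T/C: 100% = DMSO vehicle control viability.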

## C=CCn1c(=O)c2cnc(Nc3ccc(N4CCN(C)CC4)cc3)nc2n1-c1cccc(C(C)(C)O)n1
Compound 0.00316 µM
  viability, T/C: 107% (2×) and 111%
Compound 0.01 µM
  viability, T/C: 119% and 95.2% and 85.9%
Compound 0.0316 µM
  viability, T/C: 98% and 116% and 91.7%
Compound 0.1 µM
  viability, T/C: 103% and 95.6% and 93.7%
Compound 0.316 µM
  viability, T/C: 109% and 85.2% and 82.7%
Compound 1 µM
  viability, T/C: 81.5% and 87.5% and 68.1%
Curve of compound
  IC50: > 1 µM

## CCCS(=O)(=O)Nc1ccc(F)c(C(=O)c2c[nH]c3ncc(-c4ccc(Cl)cc4)cc23)c1F
Compound 0.0316 µM
  viability, T/C: 93.1% and 82.2% and 78.1%
Compound 0.1 µM
  viability, T/C: 85.3% and 76.1% and 69.5%
Compound 0.316 µM
  viability, T/C: 85.1% and 71% and 76.2%
Compound 1 µM
  viability, T/C: 72% and 64.2% and 46.1%
Compound 3.16 µM
  viability, T/C: 68.8% and 63.2% and 64.1%
Compound 10 µM
  viability, T/C: 69.5% and 72.5% and 26.7%
Curve of compound
  IC50: > 10 µM and 3.36 µM

## CCc1cc2c(N3CCc4c(cc(Cn5ccnc5)cc4-c4cn(C)nc4C(F)(F)F)C3=O)ccnc2c(OC)n1 + Cc1cccc(N(C)C(=O)C2C(O)CCN2c2nc(C)cc(C(F)(F)F)c2C#N)c1
Curve of first compound, second compound 0.0316 µM
  IC50: > 10 µM
Curve of first compound, second compound 0.1 µM
  IC50: > 10 µM
Curve of first compound, second compound 0.316 µM
  IC50: > 10 µM
Curve of first compound, second compound 1 µM
  IC50: > 10 µM
Curve of first compound, second compound 3.16 µM
  IC50: > 10 µM
Curve of first compound, second compound 10 µM
  IC50: > 10 µM
Second compound 0.0316 µM, first compound 0.0316 µM
  viability, T/C: 108%
Second compound 0.0316 µM, first compound 0.1 µM
  viability, T/C: 94.1%
Second compound 0.0316 µM, first compound 0.316 µM
  viability, T/C: 91%
Second compound 0.0316 µM, first compound 1 µM
  viability, T/C: 110%
Second compound 0.0316 µM, first compound 3.16 µM
  viability, T/C: 104%
Second compound 0.0316 µM, first compound 10 µM
  viability, T/C: 106%
Second compound 0.1 µM, first compound 0.0316 µM
  viability, T/C: 93.4%
Second compound 0.1 µM, first compound 0.1 µM
  viability, T/C: 90.9%
Second compound 0.1 µM, first compound 0.316 µM
  viability, T/C: 85.8%
Second compound 0.1 µM, first compound 1 µM
  viability, T/C: 91.4%
Second compound 0.1 µM, first compound 3.16 µM
  viability, T/C: 103%
Second compound 0.1 µM, first compound 10 µM
  viability, T/C: 121%
Second compound 0.316 µM, first compound 0.0316 µM
  viability, T/C: 95%
Second compound 0.316 µM, first compound 0.1 µM
  viability, T/C: 94.9%
Second compound 0.316 µM, first compound 0.316 µM
  viability, T/C: 89.8%
Second compound 0.316 µM, first compound 1 µM
  viability, T/C: 86.1%
Second compound 0.316 µM, first compound 3.16 µM
  viability, T/C: 104%
Second compound 0.316 µM, first compound 10 µM
  viability, T/C: 93.8%
Second compound 1 µM, first compound 0.0316 µM
  viability, T/C: 95.2%
Second compound 1 µM, first compound 0.1 µM
  viability, T/C: 87.6%
Second compound 1 µM, first compound 0.316 µM
  viability, T/C: 104%
Second compound 1 µM, first compound 1 µM
  viability, T/C: 101%
Second compound 1 µM, first compound 3.16 µM
  viability, T/C: 107%
Second compound 1 µM, first compound 10 µM
  viability, T/C: 109%
Second compound 3.16 µM, first compound 0.0316 µM
  viability, T/C: 98.9%
Second compound 3.16 µM, first compound 0.1 µM
  viability, T/C: 91.6%
Second compound 3.16 µM, first compound 0.316 µM
  viability, T/C: 101%
Second compound 3.16 µM, first compound 1 µM
  viability, T/C: 99.6%
Second compound 3.16 µM, first compound 3.16 µM
  viability, T/C: 115%
Second compound 3.16 µM, first compound 10 µM
  viability, T/C: 116%
Second compound 10 µM, first compound 0.0316 µM
  viability, T/C: 98.9%
Second compound 10 µM, first compound 0.1 µM
  viability, T/C: 95.6%
Second compound 10 µM, first compound 0.316 µM
  viability, T/C: 108%
Second compound 10 µM, first compound 1 µM
  viability, T/C: 96.4%
Second compound 10 µM, first compound 3.16 µM
  viability, T/C: 111%
Second compound 10 µM, first compound 10 µM
  viability, T/C: 124%

## CCc1cc2c(N3CCc4c(cc(Cn5ccnc5)cc4-c4cn(C)nc4C(F)(F)F)C3=O)cc(C)nc2c(OC)n1
Compound 0.0316 µM
  viability, T/C: 103% and 99% and 81.1%
Compound 0.1 µM
  viability, T/C: 120% and 97.4% and 84.6%
Compound 0.316 µM
  viability, T/C: 124% and 98% and 87.1%
Compound 1 µM
  viability, T/C: 144% and 89.3% and 98.1%
Compound 3.16 µM
  viability, T/C: 112% and 113% and 109%
Compound 10 µM
  viability, T/C: 72.1% and 119% and 109%
Curve of compound
  IC50: > 10 µM

## O=c1[nH]cc(F)c(=O)[nH]1
Compound 0.0316 µM
  viability, T/C: 91.8% and 103% and 97.7%
Compound 0.1 µM
  viability, T/C: 109% and 108% and 95%
Compound 0.316 µM
  viability, T/C: 86.7% and 107% and 114%
Compound 1 µM
  viability, T/C: 96.3% and 108% and 78.9%
Compound 3.16 µM
  viability, T/C: 68.2% and 98.1% and 75.9%
Compound 10 µM
  viability, T/C: 71% and 93.2% and 71.8%
Curve of compound
  IC50: > 10 µM
